The numbers were not newly measured in patent US20170189402A1, “SOLID DOSAGE FORMS” (AbbVie Inc., priority 2012, published 2017), which cites them from elsewhere.

The conditions of series [1]: administered orally.

Consider `Nc1ccn([C@@H]2CS[C@H](CO)O2)c(=O)n1` [Lamivudine], for which the bioavailability result in series [1] is listed as “over 80%”.
For the compound `Cc1cccc(C)c1OCC(=O)N[C@@H](Cc1ccccc1)[C@@H](O)C[C@H](Cc1ccccc1)NC(=O)[C@H](C(C)C)N1CCCNC1=O` [lopinavir], the solubility result is listed as “poorly soluble”.
